Assay results as given in PubChem BioAssay AID1963832 (Molecular Pharmacology Branch, DTP, NCI, 2024).
pIC50: −log10 of the molar value.

System: 885724-159-R-J1-PDC complex spheroid viability
Experiment: Anticancer human tumor 885724-159-R-J1-PDC patient-derived pancreatic adenocarcinoma cell line growth inhibition [POLQ]
Conditions: for pIC50: curve of first compound; for viability, T/C: stronger effect = lower value
How it was run: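 Growth inhibition in 3D: complex spheroids (tumor PDC, HUVEC, MSC) treated with POLQ inhibitor combinations; where Cmax unknown, highest tested concentration 10 microM, except SN-38 at 1 microM.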

[1] = second compound 0.0316 µM, first compound 0.00316 µM
[2] = second compound 0.0316 µM, first compound 0.01 µM
[3] = second compound 0.0316 µM, first compound 0.0316 µM
[4] = second compound 0.0316 µM, first compound 0.1 µM
[5] = second compound 0.0316 µM, first compound 0.316 µM
[6] = second compound 0.0316 µM, first compound 1 µM
[7] = second compound 0.1 µM, first compound 0.00316 µM
[8] = second compound 0.1 µM, first compound 0.01 µM
[9] = second compound 0.1 µM, first compound 0.0316 µM
[10] = second compound 0.1 µM, first compound 0.1 µM
[11] = second compound 0.1 µM, first compound 0.316 µM
[12] = second compound 0.1 µM, first compound 1 µM
[13] = second compound 0.316 µM, first compound 0.00316 µM
[14] = second compound 0.316 µM, first compound 0.01 µM
[15] = second compound 0.316 µM, first compound 0.0316 µM
[16] = second compound 0.316 µM, first compound 0.1 µM
[17] = second compound 0.316 µM, first compound 0.316 µM
[18] = second compound 0.316 µM, first compound 1 µM
[19] = second compound 1 µM, first compound 0.00316 µM
[20] = second compound 1 µM, first compound 0.01 µM
[21] = second compound 1 µM, first compound 0.0316 µM
[22] = second compound 1 µM, first compound 0.1 µM
[23] = second compound 1 µM, first compound 0.316 µM
[24] = second compound 1 µM, first compound 1 µM
[25] = second compound 3.16 µM, first compound 0.00316 µM
[26] = second compound 3.16 µM, first compound 0.01 µM
[27] = second compound 3.16 µM, first compound 0.0316 µM
[28] = second compound 3.16 µM, first compound 0.1 µM
[29] = second compound 3.16 µM, first compound 0.316 µM
[30] = second compound 3.16 µM, first compound 1 µM
[31] = second compound 10 µM, first compound 0.00316 µM
[32] = second compound 10 µM, first compound 0.01 µM
[33] = second compound 10 µM, first compound 0.0316 µM
[34] = second compound 10 µM, first compound 0.1 µM
[35] = second compound 10 µM, first compound 0.316 µM
[36] = second compound 10 µM, first compound 1 µM
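Also: spheroids exposed to compounds for 7 days.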

Structure (SMILES): C=CCn1c(=O)c2cnc(Nc3ccc(N4CCN(C)CC4)cc3)nc2n1-c1cccc(C(C)(C)O)n1 + COC1C(OC(N)=O)C(O)C(Oc2ccc3c(O)c(NC(=O)c4ccc(O)c(CC=C(C)C)c4)c(=O)oc3c2C)OC1(C)C
- pIC50 (second compound 0.0316 µM): 6.53
- pIC50 (second compound 0.1 µM): 6.27
- pIC50 (second compound 0.316 µM): 6.16
- pIC50 (second compound 1 µM): 6.15
- pIC50 (second compound 3.16 µM): 6.16
- pIC50 (second compound 10 µM): 6.20
- viability, T/C [1]: 87.8%
- viability, T/C [2]: 109%
- viability, T/C [3]: 90.9%
- viability, T/C [4]: 85.4%
- viability, T/C [5]: 47.5%
- viability, T/C [6]: 42.2%
- viability, T/C [7]: 100%
- viability, T/C [8]: 99.7%
- viability, T/C [9]: 96.5%
- viability, T/C [10]: 86.4%
- viability, T/C [11]: 54.4%
- viability, T/C [12]: 44.5%
- viability, T/C [13]: 103%
- viability, T/C [14]: 100%
- viability, T/C [15]: 93.2%
- viability, T/C [16]: 82.7%
- viability, T/C [17]: 52.7%
- viability, T/C [18]: 49%
- viability, T/C [19]: 110%
- viability, T/C [20]: 93.8%
- viability, T/C [21]: 89.7%
- viability, T/C [22]: 82.6%
- viability, T/C [23]: 55.1%
- viability, T/C [24]: 46.9%
- viability, T/C [25]: 100%
- viability, T/C [26]: 88.3%
- viability, T/C [27]: 90.1%
- viability, T/C [28]: 77.3%
- viability, T/C [29]: 57.4%
- viability, T/C [30]: 46.5%
- viability, T/C [31]: 101%
- viability, T/C [32]: 90.2%
- viability, T/C [33]: 97.2%
- viability, T/C [34]: 74.3%
- viability, T/C [35]: 58.6%
- viability, T/C [36]: 44.8%

Structure (SMILES): CC1COCCN1c1cc(-c2ccnn2C)c2ccnc(-c3ccn[nH]3)c2n1 (stereo unspecified) + COC1C(OC(N)=O)C(O)C(Oc2ccc3c(O)c(NC(=O)c4ccc(O)c(CC=C(C)C)c4)c(=O)oc3c2C)OC1(C)C
- pIC50 (second compound 0.0316 µM): 6.64
- pIC50 (second compound 0.1 µM): 6.68
- pIC50 (second compound 0.316 µM): 6.77
- pIC50 (second compound 1 µM): 6.73
- pIC50 (second compound 3.16 µM): 6.72
- pIC50 (second compound 10 µM): 6.61
- viability, T/C [3]: 78.3%
- viability, T/C [4]: 63.8%
- viability, T/C [5]: 44.3%
- viability, T/C [6]: 42.1%
- viability, T/C (second compound 0.0316 µM, first compound 3.16 µM): 39%
- viability, T/C (second compound 0.0316 µM, first compound 10 µM): 39.3%
- viability, T/C [9]: 76.5%
- viability, T/C [10]: 64.3%
- viability, T/C [11]: 41.6%
- viability, T/C [12]: 41.5%
- viability, T/C (second compound 0.1 µM, first compound 3.16 µM): 35.2%
- viability, T/C (second compound 0.1 µM, first compound 10 µM): 35.6%
- viability, T/C [15]: 81.1%
- viability, T/C [16]: 53.8%
- viability, T/C [17]: 44.3%
- viability, T/C [18]: 43.5%
- viability, T/C (second compound 0.316 µM, first compound 3.16 µM): 43.3%
- viability, T/C (second compound 0.316 µM, first compound 10 µM): 36.2%
- viability, T/C [21]: 84.1%
- viability, T/C [22]: 55.8%
- viability, T/C [23]: 43.6%
- viability, T/C [24]: 43.7%
- viability, T/C (second compound 1 µM, first compound 3.16 µM): 41%
- viability, T/C (second compound 1 µM, first compound 10 µM): 33.5%
- viability, T/C [27]: 76.4%
- viability, T/C [28]: 55.9%
- viability, T/C [29]: 45.5%
- viability, T/C [30]: 37.8%
- viability, T/C (second compound 3.16 µM, first compound 3.16 µM): 37.8%
- viability, T/C (second compound 3.16 µM, first compound 10 µM): 33.8%
- viability, T/C [33]: 77.1%
- viability, T/C [34]: 57.6%
- viability, T/C [35]: 48.2%
- viability, T/C [36]: 41.1%
- viability, T/C (second compound 10 µM, first compound 3.16 µM): 38.9%
- viability, T/C (second compound 10 µM, first compound 10 µM): 34.4%

Structure (SMILES): COc1cccc(OCCCN)c1-c1cc(Nc2cnc(C#N)cn2)n[nH]1 + COC1C(OC(N)=O)C(O)C(Oc2ccc3c(O)c(NC(=O)c4ccc(O)c(CC=C(C)C)c4)c(=O)oc3c2C)OC1(C)C
- pIC50 (second compound 0.0316 µM): 8.28
- pIC50 (second compound 0.1 µM): 8.13
- pIC50 (second compound 0.316 µM): 8.13
- pIC50 (second compound 1 µM): 8.09
- pIC50 (second compound 3.16 µM): 7.75
- pIC50 (second compound 10 µM): 8.17
- viability, T/C [1]: 58.8%
- viability, T/C [2]: 45.9%
- viability, T/C [3]: 40.8%
- viability, T/C [4]: 41.1%
- viability, T/C [5]: 44.4%
- viability, T/C [6]: 46.8%
- viability, T/C [7]: 62.2%
- viability, T/C [8]: 46.1%
- viability, T/C [9]: 41.2%
- viability, T/C [10]: 42.3%
- viability, T/C [11]: 45.4%
- viability, T/C [12]: 39%
- viability, T/C [13]: 62.6%
- viability, T/C [14]: 45.3%
- viability, T/C [15]: 43.5%
- viability, T/C [16]: 46.9%
- viability, T/C [17]: 42.5%
- viability, T/C [18]: 40.8%
- viability, T/C [19]: 63.2%
- viability, T/C [20]: 48.5%
- viability, T/C [21]: 41.8%
- viability, T/C [22]: 35.9%
- viability, T/C [23]: 45.4%
- viability, T/C [24]: 46.4%
- viability, T/C [25]: 58.7%
- viability, T/C [26]: 55%
- viability, T/C [27]: 44.6%
- viability, T/C [28]: 44.2%
- viability, T/C [29]: 43.2%
- viability, T/C [30]: 39.6%
- viability, T/C [31]: 59.4%
- viability, T/C [32]: 45.4%
- viability, T/C [33]: 41.5%
- viability, T/C [34]: 44.3%
- viability, T/C [35]: 43.5%
- viability, T/C [36]: 45.1%
